Reference: patent US20250059205A1, “Heterocyclic Compounds and Methods of Use” (AMGEN INC., priority 2021, published 2025)

What was measured:
[1] = tested on: Phosphorylation of ERK1/2 in AsPC-1 cells; assay: Phospho-ERK1/2 MSD Assay (AsPC-1 cells); type: cell-based; details: Homo sapiens, ASPC1, 2 h, 2 hours treatment, read-out: p-ERK (AsPC-1 cells) IC50
Outline: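 Read-out: MSD electrochemiluminescent detection of phosphorylated ERK1/2 in whole-cell lysates, fitted to a 4-parameter logistic curve for IC50. Prior to lysis, AsPC-1 cells (25,000 per well) received a 2 h compound dose-response at 37 °C.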

[2] = molecular target: His-tagged KRAS G12D protein (Homo sapiens, UniProt P01116, G12D); assay: KRAS G12D TR-FRET Assay; type: binding
[3] = tested on: Phosphorylation of ERK1/2 in A-427 cells; assay: Phospho-ERK1/2 MSD Assay (A-427 cells); type: cell-based; details: Homo sapiens, A-427, 2 h, 2 h treatment, read-out: p-ERK (A427 cells) IC50
Description: A-427 (ATCC® HTB-53™) cells were cultured in RPMI 1640 Medium (ThermoFisher Scientific 11875093) containing 10% fetal bovine serum (ThermoFisher Scientific 16000044) and 1× penicillin-streptomycin-glutamine (ThermoFisher Scientific 10378016). Sixteen hours prior to compound treatment, A-427 cells were seeded in 96-well cell culture plates at a density of 25,000 cells/well and incubated at 37° C., 5% CO2. A compound dose-response titration was diluted in growth media, added to appropriate wells of a cell culture plate, and then incubated at 37° C., 5% CO2 for 2 h. Following compound treatment, cells were washed with ice-cold Dulbecco's phosphate-buffered saline, no Ca^2+ or Mg^2+ (ThermoFisher Scientific 14190144), and then lysed in RIPA buffer (50 mM Tris-HCl pH 7.5, 1% Igepal, 0.5% sodium deoxycholate, 150 mM NaCl, and 0.5% sodium dodecyl sulfate) containing protease inhibitors (Roche 4693132001) and phosphatase inhibitors (Roche 4906837001). Phosphorylation of ERK1/2 in compound-treated lysates was assayed using Phospho-ERK1/2 Whole Cell Lysate kits (Meso Scale Discovery K151DWD) according to the manufacturer's protocol. Assay plates were read on a Meso Scale Discovery Sector Imager 6000, and data were analyzed using a 4-parameter logistic model to calculate IC50 values.

[4] = molecular target: GDP-bound KRAS protein (aa 1-169), containing both G12D and C118A amino acid substitutions (Homo sapiens, UniProt P01116, C118A/G12D); assay: KRAS G12D Coupled Nucleotide Exchange Assay; type: biochemical; details: 2 h compound pre-incubation
Description: Following compound pre-incubation, purified SOS protein (aa 564-1049) and GTP (Roche 10106399001) were added to the assay wells and incubated for an additional 30 min. […] The assay plates were then read on a PerkinElmer EnVision Multilabel Reader, using AlphaScreen® technology, and data were analyzed using a 4-parameter logistic model to calculate IC50 values.

Chain of His-tagged KRAS G12D protein (P01116 1-188 isoform P01116-2 G12D): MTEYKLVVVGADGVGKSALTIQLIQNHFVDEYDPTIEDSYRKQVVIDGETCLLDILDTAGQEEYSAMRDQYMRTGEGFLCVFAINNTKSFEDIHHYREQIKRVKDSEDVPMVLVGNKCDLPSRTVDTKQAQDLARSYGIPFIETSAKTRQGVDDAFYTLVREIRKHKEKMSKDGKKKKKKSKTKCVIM
Chain of GDP-bound KRAS protein (aa 1-169), containing both G12D and C118A amino acid substitutions (P01116 1-169 isoform P01116-2 G12D/C118A): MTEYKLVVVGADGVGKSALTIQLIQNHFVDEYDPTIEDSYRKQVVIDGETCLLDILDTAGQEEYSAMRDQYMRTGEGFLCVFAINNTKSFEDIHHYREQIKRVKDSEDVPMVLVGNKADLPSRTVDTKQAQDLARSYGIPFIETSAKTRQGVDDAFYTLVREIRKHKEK

SMILES	IC50 [1] [µM]	IC50 [2] [nM]	IC50 [3] [µM]	Avg 2 h Coupled Exchange IC50 [4] [µM]
Fc1cc2c(N3[C@@H]4CC[C@H]3CNC4)nc(OC[C@@]34CCCN3C[C@H](F)C4)nc2c(F)c1-c1cccc2cccc(Cl)c12 [Example 22, 4-((1R,5S)-3,8-diazabicyclo[3.2. 1]octan-8-yl)-7-(8-chloronaphthalen-1-yl)-6,8-difluoro-2-(((2R,7aS)-2-fluorotetrahydro-1H-pyrrolizin-7a(5H)-yl)methoxy) quinazoline]	2.35	17	2.66	0.014
Cc1cccc2cccc(-c3c(F)cc4c(N5[C@@H]6CC[C@H]5CNC6)nc(OC[C@@]56CCCN5C[C@H](F)C6)nc4c3F)c12 [Example 23, 4-((1R,5S)-3,8-diazabicyclo[3.2. 1]octan-8-yl)-6,8-difluoro-2-(((2R,7aS)-2-fluorotetrahydro-1H-pyrrolizin-7a(5H)-yl)methoxy)-7-(8-methylnaphthalen-1-yl)quinazoline]	2.6	44	10.3	0.019
Fc1c(-c2cccc3cccc(Cl)c23)ccc2c(N3[C@@H]4CC[C@H]3CNC4)nc(OC[C@@]34CCCN3C[C@H](F)C4)nc12 [Example 24, 4-((1R,5S)-3,8-diazabicyclo[3.2. 1]octan-8-yl)-7-(8-chloronaphthalen-1-yl)-8-fluoro-2-(((2R,7aS)-2-fluorotetrahydro-1H-pyrrolizin-7a(5H)-yl)methoxy) quinazoline]	1.39	31	3.91	0.016
Oc1cc(-c2ccc3c(N4[C@@H]5CC[C@H]4CNC5)nc(OC[C@@]45CCCN4C[C@H](F)C5)nc3c2F)c2ncccc2c1 [Example 25, 8-(4-((1R,5S)-3,8-diazabicyclo[3.2. 1]octan-8-yl)-8-fluoro-2-(((2R,7aS)-2-fluorotetrahydro-1H-pyrrolizin-7a(5H)-yl)methoxy)quinazolin-7-yl)quinolin-6-ol]	14.8	58	5.05	0.017
Nc1cc(-c2ccc3c(N4[C@@H]5CC[C@H]4CNC5)nc(OC[C@@]45CCCN4C[C@H](F)C5)nc3c2F)c2ccccc2c1 [Example 26, 4-(4-((1R,5S)-3,8-diazabicyclo[3.2. 1]octan-8-yl)-8-fluoro-2-(((2R,7aS)-2-fluorotetrahydro-1H-pyrrolizin-7a(5H)-yl)methoxy)quinazolin-7-yl)naphthalen-2-amine]	0.692	34	1.11	0.018
Oc1cc(-c2c(F)cc3c(N4[C@@H]5CC[C@H]4CNC5)nc(OC[C@@]45CCCN4C[C@H](F)C5)nc3c2F)c2ncccc2c1 [Example 27, 8-(4-((1R,5S)-3,8-diazabicyclo[3.2. 1]octan-8-yl)-6,8-difluoro-2-(((2R,7aS)-2-fluorotetrahydro-1H-pyrrolizin-7a(5H)-yl)methoxy)quinazolin-7-yl)quinolin-6-ol]	5.23	47	0.865	0.021
Cc1cccc2cccc(-c3ccc4c(N5[C@@H]6CC[C@H]5CNC6)nc(OC[C@@]56CCCN5C[C@H](F)C6)nc4c3F)c12 [Example 28, 4-((1R,5S)-3,8-diazabicyclo[3.2. 1]octan-8-yl)-8-fluoro-2-(((2R,7aS)-2-fluorotetrahydro-1H-pyrrolizin-7a(5H)-yl)methoxy)-7-(8-methylnaphthalen-1-yl)quinazoline]	3.61	90	> 10	0.044
Oc1cc(-c2ccc3c(N4[C@@H]5CC[C@H]4CNC5)nc(OC[C@@]45CCCN4C[C@H](F)C5)nc3c2F)c2cccnc2c1 [Example 29, 5-(4-((1R,5S)-3,8-diazabicyclo[3.2. 1]octan-8-yl)-8-fluoro-2-(((2R,7aS)-2-fluorotetrahydro-1H-pyrrolizin-7a(5H)-yl)methoxy)quinazolin-7-yl)quinolin-7-ol]	10	161	> 10	0.08
